Laboratory results published in patent US12329741B2, “HBV inhibitor and its use” (priority 2019, dated 2025).

Tests used:
[1] = Pharmacokinetics (PK) experiment, intragastric administration in rats; format: in vivo, Male SD rats; conditions: for AUC(0-inf) / Cmax / Tmax / half-life / AUC(0-t): male, SD, rat, po, intragastric administration 20 mg/kg, plasma; for AUC(0-t): read-out: AUC0-24; for absorption after oral administration / blood exposure: oral administration
Method: Male SD rats weighing 215-343 grams were fasted overnight before the test. The test compound was completely dissolved in 5% of the total volume of DMSO and then diluted with 30% Captisol to 2 mg/mL, and then it was administered by gavage at dosage of 20 mg/kg. In 15 minutes, 30 minutes, 1, 2, 4, 6, 8 and 24 hours after the administration, blood was taken from the end of the tails of rats at about 0.3 ml at each time point. The blood sample was placed in a centrifuge tube containing K2-EDTA, and centrifuged (@3500 rpm, 10 minutes, 4° C.). Take the plasma and store it in an ultra-low temperature refrigerator at −80° C. 50 μL of plasma sample was mixed with 135 μl of acetonitrile (including the internal standard IS), and then vortexed for 30 s, centrifuged at 15000 rpm at 4° C. for 10 min, and 10 μl of supernatant was taken as sample and injected into LC-MS/MS for analysis.

hepatitis B virus (HBV) = experiment: Anti-hepatitis B virus activity: HBV DNA in supernatant of HepG2.2.15 cells by qPCR; format: cell-based; conditions: 192 h, supernatant collected on day 8
Source text: (§1) In this experiment, real-time fluorescent quantitative PCR (qPCR) method was used to detect the content of HBV DNA in the supernatant of HepG2.2.15 cells to determine the anti-hepatitis B virus activity of the compound in HepG2.2.15 cells, and to detect cell viability impact of the test compound against HepG2.2.15 by Cell-titer Blue method. In the experiment, entecavir (ETV) was used as a reference compound to monitor the quality of the experiment.
On day 1, the cells were planted into a 96-well plate, the compound was added to treat the cells on day 2, a new culture medium containing the compound was replaced on day 5, and the supernatant was collected on day 8 to extract DNA. Quantitative PCR was used to detect the content of HBV DNA. Both the test compound and the control compound were diluted in a series of 3 times with 8 concentration points, and 2 replicate wells were measured in parallel. The final concentration of DMSO in the culture medium is 0.5%.
The calculation formula of the inhibition percentage is as follows: % inh.=(1-HBV copy number of sample/HBV copy number of 0.5% DMSO control)×100
EC50 was analyzed by Graphpad Prism software (four parameter logistic equations).

[2] = Cytotoxicity test (Cell-titer Blue method) in HepG2.2.15 cells; format: cell-based; conditions: human, six days after treatment, highest concentration tested 100 μM, read-out: HepG2.2.15 cell viability CC50
Source text: as §1
The compound concentration, plate layout, and compound treatment process are consistent with the antiviral experiments. In six days after the cells were treated with the compound, the cell viability was measured with Cell-titer Blue.
Analyze the data and calculate relative cell viability: Use the following formula to calculate the percentage of cell viability: % Cell viability=(sample fluorescence reading-fluorescence reading of culture medium control)/(fluorescence reading of DMSO control-fluorescence reading of the culture medium control)×100.
Finally, GraphPad Prism software was used to calculate the CC50 value of the compound.

SMILES	EC50 (hepatitis B virus (HBV))	CC50 at 6 days [2]	other results
Cc1c(C(=O)C(=O)NC(C)(C)C)c(C)n(C)c1C(=O)Nc1ccc2occc2c1 [Compound 52, 1,3,5-Trimethyl-2-amide-N-(benzofuran-5)-4-(2-tert-butylamino-oxalyl)-pyrrole]	≤ 0.05 µM	> 100 µM	AUC(0-inf) [1]: 17100 ng·h/mL; Cmax [1]: 3670 ng/mL; Tmax [1]: 1 h; half-life [1]: 2.39 h; AUC(0-t) [1]: 17100 ng·h/mL
C#CCNC(=O)C(=O)c1cc(C(=O)Nc2ccc(F)c(Cl)c2)c(C)o1 [Compound 2, 2-Methyl-3-amide-N-(3-chloro-4-fluorophenyl)-5-(2-propargylamino-oxalyl)-furan]	5 to 50 µM	61 µM	absorption after oral administration [1]: well absorbed; blood exposure [1]: relatively high
Cc1oc(C(=O)C(=O)NCc2nccn2C)cc1C(=O)Nc1ccc(F)c(Cl)c1 [Compound 8]	5 to 50 µM	> 100 µM	absorption after oral administration [1]: well absorbed; blood exposure [1]: relatively high
C#CC(C)(C)NC(=O)C(=O)c1c(C)c(C(=O)Nc2ccc3occc3c2)n(C)c1C [Compound 54, 1,3,5-Trimethyl-2-amide-N-(benzofuran-5-yl)-4-(2-(1,1-dimethylpropynamido)-oxalyl)-pyrrole]	≤ 0.05 µM	> 100 µM	AUC(0-inf) [1]: 87400 ng·h/mL; Cmax [1]: 9430 ng/mL; Tmax [1]: 1.67 h; half-life [1]: 2.52 h; AUC(0-t) [1]: 87200 ng·h/mL
Cc1c(C(=O)C(=O)NC2CCCC2)c(C)n(C)c1C(=O)Nc1ccc2occc2c1 [Compound 58, 1,3,5-Trimethyl-2-amide-N-(benzofuran-5-yl)-4-(2-cyclopentylamino-oxalyl)-pyrrole]	≤ 0.05 µM	> 100 µM	–
CC(C)(C)NC(=O)C(=O)c1cc(C(=O)Nc2ccc(F)cc2)c(C(C)(C)C)o1 [Compound 43, 2-tert-Butyl-3-amide-N-(4-fluorophenyl)-5-(2-tert-butylamino-oxalyl)-furan]	5 to 50 µM	> 100 µM	–
CC(C)(C)NC(=O)C(=O)c1cc(C(=O)Nc2ccc(F)cc2)co1 [Compound 42, 3-Amide-N-(4-fluorophenyl)-5-(2-tert-butylamino-oxalyl)-furan]	5 to 50 µM	> 100 µM	absorption after oral administration [1]: well absorbed; blood exposure [1]: relatively high
Cc1oc(C(=O)C(=O)NC2(C(F)(F)F)CC2)cc1C(=O)Nc1ccc(F)c(Cl)c1 [Compound 16, 2-Methyl-3-amide-N-(3-chloro-4-fluorophenyl)-5-(2-(1-trifluoromethyl-cyclopropylamino)-oxalyl)-furan]	0.05 to 0.5 µM	> 100 µM	–
Cc1oc(C(=O)C(=O)Nc2ccccc2)cc1C(=O)Nc1ccc(F)c(Cl)c1 [Compound 9, 2-Methyl-3-amide-N-(3-chloro-4-fluorophenyl)-5-(2-anilino-oxalyl)-furan]	5 to 50 µM	> 100 µM	–
C#CCNC(=O)C(=O)c1c(C)c(C(=O)Nc2ccc3c(ccn3C)c2)n(C)c1C [Compound 64, 1,3,5-Trimethyl-2-amide-N-(1-methyl-1H-indol-5-yl)-4-(2-propargylamino-oxalyl)-pyrrole]	0.5 to 5 µM	> 100 µM	–
Cc1c(C(=O)C(=O)NC2(C)COC2)c(C)n(C)c1C(=O)Nc1ccc2occc2c1 [Compound 57, 1,3,5-Trimethyl-2-amide-N-(benzofuran-5-yl)-4-(2-(3-methyl-3-oxetanino)-oxalyl)-pyrrole]	≤ 0.05 µM	> 100 µM	–
Cc1oc(C(=O)C(=O)NCc2cn(C3CC3)nn2)cc1C(=O)Nc1ccc(F)c(Cl)c1 [Compound 11, 2-Methyl-3-amide-N-(3-chloro-4-fluorophenyl)-5-(2-(1-cyclopropyl-1H-[1,2,3]triazole-4-ylmethylamino)-oxalyl)-furan]	–	–	absorption after oral administration [1]: well absorbed; blood exposure [1]: relatively high
C#CCNC(=O)C(=O)c1c(C)c(C(=O)Nc2ccc3c(c2)CCO3)n(C)c1C [Compound 69, 1,3,5-Trimethyl-2-amide-N-(2,3-dihydrobenzofuran-5-yl)-4-(2-propargylamino-oxalyl)-pyrrole]	0.05 to 0.5 µM	> 100 µM	–
C#CCNC(=O)C(=O)c1c(C)c(C(=O)Nc2ccc3occc3c2)n(C)c1C [Compound 53, 1,3,5-Trimethyl-2-amide-N-(benzofuran-5-yl)-4-(2-propargylamino-oxalyl)-pyrrole]	≤ 0.05 µM	> 100 µM	AUC(0-inf) [1]: 26400 ng·h/mL; Cmax [1]: 3930 ng/mL; Tmax [1]: 1.58 h; half-life [1]: 2.48 h; AUC(0-t) [1]: 26300 ng·h/mL
C#CC(C)(C)NC(=O)C(=O)c1sc(C)c(C(=O)Nc2ccc(F)c(Cl)c2)c1C [Compound 38, 2,4-Dimethyl-3-amide-N-(3-chloro-4-fluorophenyl)-5-(2-(1,1-dimethylpropynamido)-oxalyl)-thiophene]	≤ 0.05 µM	> 100 µM	–
Cc1oc(C(=O)C(=O)NC(C)(C)C)cc1C(=O)Nc1ccc(F)c(F)c1 [Compound 19, 2-Methyl-3-amide-N-(3,4-difluorophenyl)-5-(2-tert-butylamino-oxalyl)-furan]	0.5 to 5 µM	> 100 µM	–
Cc1oc(C(=O)C(=O)NC(C)(C)C)cc1C(=O)Nc1ccc(F)c(Cl)c1 [Compound 1, 2-Methyl-3-amide-N-(3-chloro-4-fluorophenyl)-5-(2-tert-butylamino-oxalyl)-furan]	0.5 to 5 µM	> 100 µM	–
CC(C)(C)NC(=O)C(=O)c1nc(C(=O)Nc2ccc(F)c(Cl)c2)cs1 [Compound 44, 2-(2-Tert-Butylamino-oxalyl)-4-amide-N-(3-chloro-4-fluoro-phenyl)-thiazole]	> 50 µM	28 µM	–
C#CCNC(=O)C(=O)c1c(C)c(C(=O)Nc2ccc3sccc3c2)n(C)c1C [Compound 63, 1,3,5-Trimethyl-2-amide-N-(benzothiophen-5-yl)-4-(2-propargylamino-oxalyl)-pyrrole]	0.05 to 0.5 µM	> 100 µM	–
C#CC(C)(C)NC(=O)C(=O)c1c(C)c(C(=O)Nc2ccc(F)c(F)c2)n(S(C)(=O)=O)c1C [Compound 81, 1-Methylsulfo-2-amide-N-(3,4-difluorophenyl)-3,5-dimethyl-4-(2-(1,1-dimethylpropynamine)-oxalyl)pyrrole]	0.05 to 0.5 µM	> 100 µM	–
Cc1sc(C(=O)C(=O)NC(C)(C)C)c(C)c1C(=O)Nc1ccc(F)c(Cl)c1 [Compound 36, 2,4-Dimethyl-3-amide-N-(3-chloro-4-fluorophenyl)-5-(2-tert-butylamino-oxalyl)-thiophene]	≤ 0.05 µM	> 100 µM	AUC(0-inf) [1]: 32600 ng·h/mL; Cmax [1]: 3730 ng/mL; Tmax [1]: 0.5 h; half-life [1]: 12.2 h; AUC(0-t) [1]: 25800 ng·h/mL; absorption after oral administration [1]: well absorbed; blood exposure [1]: relatively high
Cc1c(C(=O)C(=O)NC(C)(C)C)csc1C(=O)Nc1ccc(F)c(Cl)c1 [Compound 85, 2-Amide-N-(3-chloro-4-fluoro-phenyl)-3-methyl-4-(2-tert-butylamino-oxalyl)-thiophene]	0.5 to 5 µM	96 µM	–
Cc1oc(C(=O)C(=O)NC(C)(C)C)cc1C(=O)Nc1cc(F)c(F)c(F)c1 [Compound 20, 2-Methyl-3-amide-N-(3,4,5-trifluorophenyl)-5-(2-tert-butylamino-oxalyl)-furan]	0.05 to 0.5 µM	> 100 µM	–
COCC1(NC(=O)C(=O)c2c(C)c(C(=O)Nc3ccc4occc4c3)n(C)c2C)COC1 [Compound 62, 1,3,5-trimethyl-2-amide-N-(benzofuran-5-yl)-4-(2-(3-methoxymethyl-3-oxetan)(amino)-oxalyl)-pyrrole]	≤ 0.05 µM	> 100 µM	–
C#Cc1cccc(NC(=O)c2cc(C(=O)C(=O)NC(C)(C)C)oc2C)c1 [Compound 28, 2-Methyl-3-amide-N-(3-alkynylphenyl)-5-(2-tert-butylamino-oxalyl)-furan]	5 to 50 µM	> 100 µM	–
